# Measurements taken from PMC9661397 (Circulation, 2020).
# Tests used:
# C57BL/6J mice = assay: In vivo electrophysiology study, AF induced by burst pacing; parameters: species or system mouse; conditions: for AF inducibility: 25 mg·kg−1·d−1 IP for 4 weeks (28 days)
# BTK = BTK (Mus musculus, UniProt P35991); assay: KiNativ chemoproteomic kinase profiling in mouse heart lysate; format: binding; conditions: read-out: % inhibition of BTK
# CSK = CSK (Mus musculus, UniProt P41241); assay: as above; format: binding
# RIPK3 = RIPK3 (Mus musculus, UniProt Q9QZL0); assay: as above; format: binding; conditions: read-out: % inhibition of RIPK3
# MEK5 = target: T1, MEK5 (Mus musculus, UniProt Q9WVS7); assay: as above; format: binding; conditions: read-out: % inhibition of MEK5
# T1 sequence (Q9WVS7 1-448): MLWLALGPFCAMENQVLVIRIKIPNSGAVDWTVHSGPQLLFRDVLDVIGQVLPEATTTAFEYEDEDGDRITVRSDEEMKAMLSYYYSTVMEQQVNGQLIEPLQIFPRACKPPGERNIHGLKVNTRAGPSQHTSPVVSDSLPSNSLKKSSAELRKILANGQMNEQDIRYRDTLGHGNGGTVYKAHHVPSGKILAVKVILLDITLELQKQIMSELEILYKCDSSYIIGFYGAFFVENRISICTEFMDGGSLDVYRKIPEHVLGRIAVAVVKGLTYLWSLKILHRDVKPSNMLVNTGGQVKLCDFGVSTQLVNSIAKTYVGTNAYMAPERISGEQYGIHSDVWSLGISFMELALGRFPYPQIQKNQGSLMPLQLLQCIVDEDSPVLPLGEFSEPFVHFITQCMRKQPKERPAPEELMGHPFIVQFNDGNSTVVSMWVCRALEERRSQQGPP
# FYN = FYN (Mus musculus, UniProt P39688); assay: as above; format: binding; conditions: read-out: % inhibition of FYN
# IL-6 = assay: Plasma cytokine measurement; format: in vivo, mouse; conditions: 25 mg/kg daily for 4 weeks, C57BL/6J mice, vs vehicle
# mice = assay: Echocardiography and cardiac MRI of cardiac structure; format: in vivo, mouse
# BTK^xid mice = conditions: 25 mg·kg−1·d−1 IP for 4 weeks, vs vehicle
# [1] = system: Fn1, Col1a1, and Col3a1 mRNA; assay: Quantitative real-time PCR of fibrosis markers in LA tissue; format: in vivo, mouse; conditions: 25 mg/kg daily for 4 weeks, C57BL/6J mice
# TNFα = assay: Plasma cytokine measurement; format: in vivo, mouse; conditions: 25 mg/kg daily for 4 weeks, C57BL/6J mice, vs vehicle
# [2] = 25 mg/kg daily for 4 weeks, C57BL/6J mice, vs vehicle
# RIPK3, sequence (Q9QZL0 whole entry): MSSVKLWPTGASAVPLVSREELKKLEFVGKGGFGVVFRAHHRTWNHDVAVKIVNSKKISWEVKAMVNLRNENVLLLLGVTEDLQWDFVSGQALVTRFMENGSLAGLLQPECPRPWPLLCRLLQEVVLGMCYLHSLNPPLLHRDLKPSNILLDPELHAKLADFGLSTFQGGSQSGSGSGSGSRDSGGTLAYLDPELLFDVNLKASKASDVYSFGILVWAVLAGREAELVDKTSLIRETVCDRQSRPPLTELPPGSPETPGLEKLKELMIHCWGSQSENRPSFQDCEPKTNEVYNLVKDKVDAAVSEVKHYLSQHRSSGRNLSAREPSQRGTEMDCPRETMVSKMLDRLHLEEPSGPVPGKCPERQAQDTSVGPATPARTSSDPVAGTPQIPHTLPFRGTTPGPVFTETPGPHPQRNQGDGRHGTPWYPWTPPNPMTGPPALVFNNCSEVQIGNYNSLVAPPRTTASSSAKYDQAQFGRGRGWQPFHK
# CSK, sequence (P41241 whole entry): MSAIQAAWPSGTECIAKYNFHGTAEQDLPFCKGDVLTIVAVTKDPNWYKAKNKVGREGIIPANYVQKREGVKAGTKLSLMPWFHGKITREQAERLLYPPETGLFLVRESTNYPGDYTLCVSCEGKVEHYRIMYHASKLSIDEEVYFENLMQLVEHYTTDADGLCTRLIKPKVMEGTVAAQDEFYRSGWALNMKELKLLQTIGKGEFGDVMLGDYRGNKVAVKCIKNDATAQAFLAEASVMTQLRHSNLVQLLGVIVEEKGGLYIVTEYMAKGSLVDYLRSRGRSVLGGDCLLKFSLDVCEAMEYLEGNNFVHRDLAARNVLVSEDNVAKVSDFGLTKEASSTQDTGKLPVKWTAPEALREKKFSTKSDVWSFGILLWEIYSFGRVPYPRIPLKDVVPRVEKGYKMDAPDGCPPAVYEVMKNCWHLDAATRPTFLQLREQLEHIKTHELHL
# BTK, sequence (P35991 whole entry): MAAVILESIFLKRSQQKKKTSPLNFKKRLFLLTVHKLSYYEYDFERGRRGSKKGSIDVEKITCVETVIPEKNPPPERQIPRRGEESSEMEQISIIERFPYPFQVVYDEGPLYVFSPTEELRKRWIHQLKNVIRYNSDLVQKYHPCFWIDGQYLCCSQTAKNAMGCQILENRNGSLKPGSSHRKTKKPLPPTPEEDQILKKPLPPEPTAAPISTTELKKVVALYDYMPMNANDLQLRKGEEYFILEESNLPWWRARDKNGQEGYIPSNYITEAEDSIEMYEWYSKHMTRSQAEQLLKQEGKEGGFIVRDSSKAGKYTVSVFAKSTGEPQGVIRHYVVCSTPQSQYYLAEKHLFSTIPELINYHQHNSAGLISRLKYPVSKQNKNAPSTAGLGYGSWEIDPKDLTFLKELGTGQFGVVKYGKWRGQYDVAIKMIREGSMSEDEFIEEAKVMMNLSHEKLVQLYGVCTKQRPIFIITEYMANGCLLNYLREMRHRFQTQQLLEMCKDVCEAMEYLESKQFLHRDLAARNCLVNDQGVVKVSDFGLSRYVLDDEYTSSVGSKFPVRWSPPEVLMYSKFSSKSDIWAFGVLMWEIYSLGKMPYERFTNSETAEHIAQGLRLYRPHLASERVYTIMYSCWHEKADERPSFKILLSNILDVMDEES
# FYN, sequence (P39688 whole entry): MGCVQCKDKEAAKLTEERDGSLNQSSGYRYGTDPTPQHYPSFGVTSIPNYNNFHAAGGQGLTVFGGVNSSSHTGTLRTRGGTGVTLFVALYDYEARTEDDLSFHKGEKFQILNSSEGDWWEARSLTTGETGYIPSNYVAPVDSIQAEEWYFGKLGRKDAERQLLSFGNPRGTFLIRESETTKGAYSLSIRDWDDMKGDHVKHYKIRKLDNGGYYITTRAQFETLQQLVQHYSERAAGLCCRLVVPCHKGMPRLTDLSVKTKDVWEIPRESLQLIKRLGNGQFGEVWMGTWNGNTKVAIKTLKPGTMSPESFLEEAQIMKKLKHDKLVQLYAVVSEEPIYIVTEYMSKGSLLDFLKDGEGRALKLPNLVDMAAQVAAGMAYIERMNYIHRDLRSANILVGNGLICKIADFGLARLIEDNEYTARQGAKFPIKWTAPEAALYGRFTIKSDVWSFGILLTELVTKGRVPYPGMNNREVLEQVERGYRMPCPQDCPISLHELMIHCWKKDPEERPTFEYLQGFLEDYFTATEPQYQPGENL
smiles,measurement,setting,value
CN(C)Cc1cccc(N/C(=C2\C(=O)Nc3cc(C(N)=O)ccc32)c2ccccc2)c1 [BIX-02188],AF inducibility,"C57BL/6J mice; C57BL/6J mice, vs vehicle",did not lead to an increase in AF inducibility
CC#CC(=O)N1CCC[C@H]1c1nc(-c2ccc(C(=O)Nc3ccccn3)cc2)c2c(N)nccn12 [acalabrutinib],inhibition at 10 µM,BTK,> 90%
same,% inhibition of CSK,"CSK; 10 μM, 15 minutes, mouse heart lysate, ATP probe 20 μmol/L",do not inhibit CSK
same,AF inducibility,"C57BL/6J mice; C57BL/6J mice, vs vehicle",did not cause AF
same,inhibition at 10 µM,RIPK3,> 90%
C=CC(=O)N1CCC[C@@H](n2nc(-c3ccc(Oc4ccccc4)cc3)c3c(N)ncnc32)C1 [ibrutinib],inhibition at 10 µM,MEK5,> 90%
same,inhibition at 10 µM,FYN,> 90%
same,circulating interleukin-6 (IL-6),IL-6,elevated
same,left ventricular ejection fraction,"mice; 25 mg/kg daily for 4 weeks, C57BL/6J mice, MRI",preserved
same,atrial dilation (LA size),mice; [2],significant atrial dilation
same,LA enlargement (LA diameter by echocardiography),"mice; BTK^xid mice, 25 mg·kg−1·d−1 IP for 4 weeks",LA enlargement
same,inhibition at 10 µM,CSK; read-out: % inhibition of CSK,> 90%
same,AF inducibility,BTK^xid mice,significant increase in AF inducibility
same,"expression of fibrosis markers fibronectin, and collagens 1α1 and 3α1",[1],increased expression
same,atrial effective refractory periods,C57BL/6J mice; [2],prolonged
same,AF inducibility,"C57BL/6J mice; C57BL/6J mice, vs vehicle",more inducible atrial fibrillation than vehicle injected mice
same,inducible AF,"C57BL/6J mice; short duration exposure, mice",did not result in increased inducible AF
same,circulating tumor necrosis factor α (TNFα),TNFα,elevated
same,inhibition at 10 µM,RIPK3,> 90%
CN1CCN(CCOc2cc(OC3CCOCC3)c3c(Nc4c(Cl)ccc5c4OCO5)ncnc3c2)CC1 [saracatinib],AF inducibility,"C57BL/6J mice; C57BL/6J mice, vs vehicle",did not result in increased AF
